The text below walks through data of article PMC8112869, “Therapeutic inhibition of keratinocyte TRPV3 sensory channel by local anesthetic dyclonine” (eLife, 2021).

Assay [1] has as its system TRPV3+/+ and TRPV3-/- mice. The assay can be described thus: Hot plate (55°C) paw withdrawal latency, Hargreaves test. The class given is in vivo, mouse. The procedure: All tests were conducted during the light phase of the light/dark cycle by a trained observer blind to the genotype. Mice were habituated to the testing room for 60 min prior to the behavioral tests unless otherwise stated. Hargreaves test was performed as described previously ([Wang et al., 2018]). All behavioral experiments were conducted in a double-blind manner. For measurement of thermal hyperalgesia, animals were placed individually, 30 min after injection, on a hot plate (Bioseb, Chaville, France) with the temperature adjusted to 55°C. The withdrawal latency of each hind paw was determined until nocifensive reaction appeared (licking foot). Right hind paws of mice were injected intraplantarly with 10 μl normal saline (0.9% NaCl). Left hind paws of mice were injected intraplantarly with 10 μl normal saline (supplemented with 10 or 50 μM dyclonine).

The target of another assay is T1, TRPV3 I637A (Mus musculus, UniProt Q8K424, I637A).
T1 construct: expressed in transfected cells; host or cells: HEK 293T
The assay is described as follows: Whole-cell recording of TRPV3 mutant I637A in HEK 293T cells. The class given is cell-based. Particulars: 2-APB (1 mM)-evoked, –60 mV, read-out: IC50 for inhibition of TRPV3 mutant. An excerpt: (§1) The WT mouse TRPV3 (mTRPV3), human TRPV3 (hTRPV3), rat TRPV1, rat TRPV2, rat TRPM8, and mouse TRPA1 cDNAs were generously provided by Dr. Feng Qin (State University of New York at Buffalo, Buffalo, USA). The GFP-mTRPV3 WT and the mutants (mTRPV3-G573S and mTRPV3-G573C) in pcDNA4/TO vector were gifts from Dr. Michael X Zhu (The University of Texas Health Science Center at Houston, Houston, USA). The WT fTRPV3 was kindly provided by Dr. Makoto Tominaga (Department of Physiological Sciences, SOKENDAI, Okazaki, Japan). All mutations were made using the overlap-extension polymerase chain reaction method as previously described ([Tian et al., 2019]). The resulting mutations were then verified by DNA sequencing. […]
(§2) Conventional whole-cell and excised patch-clamp recording methods were used. […] For a subset of recordings, currents were amplified using an Axopatch 200B amplifier (Molecular Devices, Sunnyvale, CA) and recorded through a BNC-2090/MIO acquisition system (National Instruments, Austin, TX) using QStudio developed by Dr. Feng Qin at State University of New York at Buffalo. […] As determined by the conductance tests, the solution around a patch under study was fully controlled by the application of a flow rate of 100 μl/min or greater. […]

The target of another assay is T2, TRPV2 (Rattus norvegicus, UniProt Q9WUD2).
T2 construct: expressed in transfected cells; host or cells: HEK 293T
The assay is described as follows: Whole-cell recording of 2-APB-activated TRPV2 in HEK 293T cells. The assay is classed as cell-based.
Description: as §1, §2

In a further assay the target is T3, human TRPV3 (hTRPV3) (Homo sapiens, UniProt Q8NET8).
T3 construct: expressed in transfected cells; host or cells: HEK 293T
The assay can be described thus: Whole-cell recording of 2-APB-evoked currents in hTRPV3-expressing HEK 293T cells. The assay is classed as cell-based.
Description: as §1, §2

The target of another assay is T4, TRPV3 (G573C) (Mus musculus, UniProt Q8K424, G573C).
T4 construct: expressed in transfected cells; host or cells: T-Rex 293
The assay can be described thus: Whole-cell currents of TRPV3 (G573C) expressed in T-Rex 293 cells. The assay is classed as cell-based.
Description: as §1, §2

A further assay deals with frog TRPV3 (fTRPV3) (Xenopus tropicalis, UniProt F6UZP3). The assay is described as follows: Whole-cell recording of 2-APB-evoked currents in fTRPV3-expressing HEK 293T cells. The class given is cell-based.
Description: as §1, §2

For the next assay, the target named is T5, TRPM8 (Rattus norvegicus, UniProt Q8R455).
T5 construct: expressed in transfected cells; host or cells: HEK 293T
The assay is described as follows: Whole-cell recording of menthol-activated TRPM8 in HEK 293T cells. The assay is classed as cell-based.
Description: as §1, §2

frog TRPV3 (fTRPV3), sequence (F6UZP3 entry or part of it): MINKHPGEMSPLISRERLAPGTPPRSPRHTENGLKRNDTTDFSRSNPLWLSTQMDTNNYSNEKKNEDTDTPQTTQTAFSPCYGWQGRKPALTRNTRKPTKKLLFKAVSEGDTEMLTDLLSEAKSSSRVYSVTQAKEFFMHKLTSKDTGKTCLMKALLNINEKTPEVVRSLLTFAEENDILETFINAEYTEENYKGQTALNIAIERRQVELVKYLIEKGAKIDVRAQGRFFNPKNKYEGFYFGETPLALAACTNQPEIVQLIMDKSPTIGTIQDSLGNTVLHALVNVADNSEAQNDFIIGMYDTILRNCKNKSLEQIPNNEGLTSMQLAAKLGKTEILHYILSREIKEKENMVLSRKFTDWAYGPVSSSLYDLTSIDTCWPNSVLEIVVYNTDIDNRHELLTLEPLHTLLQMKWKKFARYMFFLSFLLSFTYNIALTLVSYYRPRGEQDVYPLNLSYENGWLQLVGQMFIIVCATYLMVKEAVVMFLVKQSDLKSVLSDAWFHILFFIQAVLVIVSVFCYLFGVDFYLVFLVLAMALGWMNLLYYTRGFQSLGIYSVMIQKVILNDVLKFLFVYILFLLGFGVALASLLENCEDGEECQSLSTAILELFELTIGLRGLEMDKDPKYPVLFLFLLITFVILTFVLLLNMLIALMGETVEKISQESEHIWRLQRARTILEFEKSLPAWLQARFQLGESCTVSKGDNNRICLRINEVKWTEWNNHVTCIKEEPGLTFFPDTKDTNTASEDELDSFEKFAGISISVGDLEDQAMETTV
T3 sequence (Q8NET8 whole entry): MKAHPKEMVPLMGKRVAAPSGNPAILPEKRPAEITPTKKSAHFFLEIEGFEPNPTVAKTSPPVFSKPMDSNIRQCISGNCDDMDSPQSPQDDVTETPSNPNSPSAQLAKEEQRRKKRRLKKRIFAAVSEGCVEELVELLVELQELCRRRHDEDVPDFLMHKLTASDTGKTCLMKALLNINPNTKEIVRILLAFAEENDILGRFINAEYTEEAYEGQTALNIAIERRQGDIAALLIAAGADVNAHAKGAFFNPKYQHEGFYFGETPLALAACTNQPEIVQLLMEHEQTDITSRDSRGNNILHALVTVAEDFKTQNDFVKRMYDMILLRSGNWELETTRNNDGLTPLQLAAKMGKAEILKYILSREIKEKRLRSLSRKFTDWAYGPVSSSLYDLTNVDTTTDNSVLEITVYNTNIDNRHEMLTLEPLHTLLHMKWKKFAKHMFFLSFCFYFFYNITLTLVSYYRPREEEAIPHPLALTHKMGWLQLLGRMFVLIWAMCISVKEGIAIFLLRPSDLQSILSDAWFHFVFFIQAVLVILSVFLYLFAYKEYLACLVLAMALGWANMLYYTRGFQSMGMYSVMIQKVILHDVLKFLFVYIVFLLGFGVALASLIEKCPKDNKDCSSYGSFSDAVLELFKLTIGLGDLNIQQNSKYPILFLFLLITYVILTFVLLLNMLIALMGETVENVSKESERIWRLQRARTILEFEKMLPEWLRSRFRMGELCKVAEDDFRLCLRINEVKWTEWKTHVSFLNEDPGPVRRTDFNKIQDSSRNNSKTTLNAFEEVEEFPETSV
T2 sequence (Q9WUD2 whole entry): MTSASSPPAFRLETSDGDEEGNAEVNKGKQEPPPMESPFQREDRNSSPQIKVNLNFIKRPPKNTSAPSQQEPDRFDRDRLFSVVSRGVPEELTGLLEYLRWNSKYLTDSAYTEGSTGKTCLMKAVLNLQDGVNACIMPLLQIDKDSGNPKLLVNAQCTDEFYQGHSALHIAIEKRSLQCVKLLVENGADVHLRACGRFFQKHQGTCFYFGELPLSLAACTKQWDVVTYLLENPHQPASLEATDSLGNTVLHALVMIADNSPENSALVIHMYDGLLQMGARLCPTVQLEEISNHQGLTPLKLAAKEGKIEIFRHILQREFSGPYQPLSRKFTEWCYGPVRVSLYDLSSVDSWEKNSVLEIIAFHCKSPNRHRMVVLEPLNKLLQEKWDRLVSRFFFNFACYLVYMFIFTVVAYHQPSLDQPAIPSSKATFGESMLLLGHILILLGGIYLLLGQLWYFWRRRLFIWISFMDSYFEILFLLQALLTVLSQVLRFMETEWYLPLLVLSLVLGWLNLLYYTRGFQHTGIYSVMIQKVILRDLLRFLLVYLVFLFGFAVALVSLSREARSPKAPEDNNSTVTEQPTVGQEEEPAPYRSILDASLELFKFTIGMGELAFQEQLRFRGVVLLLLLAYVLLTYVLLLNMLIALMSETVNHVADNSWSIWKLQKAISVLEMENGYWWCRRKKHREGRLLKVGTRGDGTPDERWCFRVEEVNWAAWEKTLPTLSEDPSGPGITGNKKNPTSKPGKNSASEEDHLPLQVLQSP
T5 sequence (Q8R455 whole entry): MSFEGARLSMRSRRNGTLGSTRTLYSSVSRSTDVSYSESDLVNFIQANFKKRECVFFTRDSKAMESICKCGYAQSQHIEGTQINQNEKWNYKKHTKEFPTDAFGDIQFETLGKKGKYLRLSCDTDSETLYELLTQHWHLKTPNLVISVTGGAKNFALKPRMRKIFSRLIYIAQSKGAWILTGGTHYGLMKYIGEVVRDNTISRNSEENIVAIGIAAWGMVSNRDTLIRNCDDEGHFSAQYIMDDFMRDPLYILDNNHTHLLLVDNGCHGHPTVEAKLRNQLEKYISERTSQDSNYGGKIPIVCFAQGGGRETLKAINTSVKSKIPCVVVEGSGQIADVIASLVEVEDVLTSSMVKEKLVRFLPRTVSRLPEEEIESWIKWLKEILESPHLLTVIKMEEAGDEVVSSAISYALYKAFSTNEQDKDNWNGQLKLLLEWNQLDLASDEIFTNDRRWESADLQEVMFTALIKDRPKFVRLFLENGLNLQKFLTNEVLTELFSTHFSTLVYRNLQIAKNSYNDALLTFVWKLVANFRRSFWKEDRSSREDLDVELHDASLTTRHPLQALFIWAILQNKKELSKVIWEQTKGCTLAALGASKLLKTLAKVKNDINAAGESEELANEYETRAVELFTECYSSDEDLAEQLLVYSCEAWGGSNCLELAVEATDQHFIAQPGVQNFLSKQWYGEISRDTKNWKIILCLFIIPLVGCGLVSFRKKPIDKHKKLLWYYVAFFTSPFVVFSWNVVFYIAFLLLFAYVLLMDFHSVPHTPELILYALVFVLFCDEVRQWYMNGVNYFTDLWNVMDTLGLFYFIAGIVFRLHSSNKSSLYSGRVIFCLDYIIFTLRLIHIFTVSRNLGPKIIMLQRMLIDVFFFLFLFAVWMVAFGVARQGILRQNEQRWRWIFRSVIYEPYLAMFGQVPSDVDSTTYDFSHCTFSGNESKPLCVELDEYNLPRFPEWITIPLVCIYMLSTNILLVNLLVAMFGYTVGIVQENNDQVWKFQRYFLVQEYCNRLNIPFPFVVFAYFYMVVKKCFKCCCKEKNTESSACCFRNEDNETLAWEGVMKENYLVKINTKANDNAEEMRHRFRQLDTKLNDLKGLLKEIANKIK
T4 sequence (Q8K424 whole entry G573C): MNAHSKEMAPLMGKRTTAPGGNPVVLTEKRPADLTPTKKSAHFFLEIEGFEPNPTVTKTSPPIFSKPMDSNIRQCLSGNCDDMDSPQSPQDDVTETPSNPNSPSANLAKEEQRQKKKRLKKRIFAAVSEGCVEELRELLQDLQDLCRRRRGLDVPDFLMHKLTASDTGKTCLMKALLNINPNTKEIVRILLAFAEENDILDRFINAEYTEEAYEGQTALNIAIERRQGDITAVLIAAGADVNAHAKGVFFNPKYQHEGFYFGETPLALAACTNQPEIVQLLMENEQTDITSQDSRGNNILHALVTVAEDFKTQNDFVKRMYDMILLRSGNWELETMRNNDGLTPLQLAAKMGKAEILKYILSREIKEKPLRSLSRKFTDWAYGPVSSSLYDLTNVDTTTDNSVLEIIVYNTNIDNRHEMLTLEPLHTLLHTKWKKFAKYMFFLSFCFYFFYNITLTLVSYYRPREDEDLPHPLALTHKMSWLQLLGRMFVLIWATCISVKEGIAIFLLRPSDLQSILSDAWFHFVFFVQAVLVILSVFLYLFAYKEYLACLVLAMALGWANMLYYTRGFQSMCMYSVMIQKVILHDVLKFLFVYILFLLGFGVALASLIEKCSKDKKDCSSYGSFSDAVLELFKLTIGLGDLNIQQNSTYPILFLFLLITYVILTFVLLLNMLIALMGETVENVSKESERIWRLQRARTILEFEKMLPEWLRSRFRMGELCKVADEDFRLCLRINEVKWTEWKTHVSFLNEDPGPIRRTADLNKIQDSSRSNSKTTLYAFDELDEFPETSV
T1 sequence (Q8K424 whole entry I637A): as the sequence (Q8K424 whole entry G573C) above, with C573G, I637A counted along it

As for `CCCCOc1ccc(C(=O)CCN2CCCCC2)cc1` [dyclonine], the “paw withdrawal latencies (PWL)” value in assay [1] (TRPV3+/+ mice, intraplantar 10 μM dyclonine) came out at 18.08 ± 0.03 s; in assay [1] (TRPV3+/+ mice, intraplantar 50 μM dyclonine) it was 18.82 ± 0.42 s; in assay [1] (TRPV3-/- mice, intraplantar 10 μM dyclonine) it was 18.23 ± 0.52 s; in assay [1] (TRPV3-/- mice, intraplantar 50 μM dyclonine) it was 18.61 ± 0.46 s. For the same compound, the IC50 (as a rule, the concentration at which inhibition is half-maximal) on TRPV3 I637A was found to be 6.1 ± 0.43 µM; on human TRPV3 (hTRPV3) (2-APB (100 μM)-evoked, –60 mV, read-out: IC50 on blocking of hTRPV3), 16.2 ± 0.72 µM; on frog TRPV3 (fTRPV3) (3 mM 2-APB-evoked, –60 mV, read-out: IC50 on inhibition of fTRPV3 currents), 12.3 µM. Moreover, the “Hill coefficient nH” value at TRPV2 came to 2.9 ± 0.50; on human TRPV3 (hTRPV3), 1.91 ± 0.14; on frog TRPV3 (fTRPV3), 1.6 ± 0.34; at TRPM8, 1.2 ± 0.20. The “reduction in current amplitude” value at TRPV2 (10 μM dyclonine, 2-APB-activated) was 6% ± 1%; on TRPM8 (10 μM dyclonine, menthol-activated), 9% ± 2%. Also, at TRPV3 (G573C) (10 μM dyclonine, –60 mV, leak subtracted with 20 μM RR), the “reduction of spontaneous activities” value is on record as 71% ± 2%. Further, the “300 μM 2-APB-evoked responses, of control level” value at TRPV3 (G573C) (presence of dyclonine) is given as 11% ± 1%.
